{
  "source": "patent US20240415113A1",
  "about": "“COMPOSITION AND METHOD FOR ATTRACTING VESPID WASPS” (BanfieldBio Inc., priority 2023, published 2024)",
  "origin": "cited, not measured here",
  "key": {"western yellowjackets": {"tested_on": "western yellowjackets", "details": "Oregon peach orchard, 10 days in 1969"}, "vespid wasps": {"tested_on": "vespid wasps", "details": "50 μL heptyl butyrate and 1 g chicken meat extract, separately or together in the receiving chamber"}},
  "data": [
    {"smiles": "CCCCCCCOC(=O)CCC", "note": "[Heptyl butyrate]", "values": [
      {"measurement": "western yellowjackets captured per trap", "setting": "western yellowjackets", "result": "over 800 western yellowjackets per trap"},
      {"measurement": "trap catch comparison in words", "setting": "vespid wasps", "result": "impeded entry into traps baited with the chicken extract"}
    ]}
  ]
}
